# In patent US6737383B1, “Herbicidal oxadiazolidines” (priority 1999, dated 2004):
# Assays:
# wheat = assay: Test B pre/postemergence wheat; type: in vivo, Triticum aestivum; conditions: for Plant response rating, Wheat: scale of 0 to 10 where 0 is no effect and 10 is complete control
# Procedure, shortened: (§1)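 Response is a visual 0-to-10 score relative to untreated plants, where 0 means no effect and 10 means complete control, taken twelve to sixteen days after application. Treatments went onto soil at planting and onto foliage of 1- to 4-leaf plants, using a surfactant-containing non-phytotoxic solvent.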
# wild oat = assay: Test B pre/postemergence wild oat; type: in vivo, Avena fatua; conditions: for Plant response rating, Wild oats: scale of 0 to 10 where 0 is no effect and 10 is complete control
# Procedure, shortened: as §1
# crabgrass = assay: Test B pre/postemergence crabgrass; type: in vivo, Digitaria sanguinalis
# Procedure, shortened: as §1
# rape = assay: Test B pre/postemergence rape; type: in vivo, Brassica napus; conditions: for Plant response rating, Rape: scale of 0 to 10 where 0 is no effect and 10 is complete control
# Procedure, shortened: as §1
# surinam grass = assay: Test B pre/postemergence surinam grass; type: in vivo, Brachiaria decumbens
# Procedure, shortened: as §1
# giant foxtail = assay: Test B pre/postemergence giant foxtail; type: in vivo, Setaria faberii
# Procedure, shortened: as §1
# cocklebur = assay: Test B pre/postemergence cocklebur; type: in vivo, Xanthium strumarium
# Procedure, shortened: as §1
# blackgrass = assay: Test B pre/postemergence blackgrass; type: in vivo, Alopecurus myosuroides
# Procedure, shortened: as §1
# bamyardgrass = assay: Test B flood test barnyardgrass; type: in vivo, Echinochloa crus-galli
# Procedure, shortened: (§2)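 Plants were grown to the 2-leaf stage before treatment with test chemical, then held in a greenhouse for twelve to sixteen days. Injury was visually rated against untreated controls on a 0–10 scale, where 0 is no effect and 10 is complete control.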
# rice = assay: Test B flood test rice; type: in vivo, Oryza sativa
# Procedure, shortened: as §2
# purple nutsedge = assay: Test B pre/postemergence purple nutsedge; type: in vivo, Cyperus rotundus
# Procedure, shortened: as §1
# bedstraw = assay: Test B pre/postemergence bedstraw; type: in vivo, Galium aparine; conditions: Preemergence; for Plant response rating, Bedstraw: scale of 0 to 10 where 0 is no effect and 10 is complete control; for Bedstraw plant response rating: scale 0 to 10, 0 is no effect, 10 is complete control
# Procedure, shortened: as §1
# pigweed = assay: Test B pre/postemergence pigweed; type: in vivo, Amaranthus retroflexus; conditions: for Plant response rating, Redroot pigweed: scale of 0 to 10 where 0 is no effect and 10 is complete control
# Procedure, shortened: as §1
# morningglory = assay: Test B pre/postemergence morningglory; type: in vivo, Ipomoea hederacea; conditions: for Plant response rating, Morningglory: scale of 0 to 10 where 0 is no effect and 10 is complete control
# Procedure, shortened: as §1
# sugar beet = assay: Test B pre/postemergence sugar beet; type: in vivo, Beta vulgaris; conditions: for Plant response rating, Sugarbeets: scale of 0 to 10 where 0 is no effect and 10 is complete control
# Procedure, shortened: as §1
# corn = assay: Test B pre/postemergence corn; type: in vivo, Zea mays
# Procedure, shortened: as §1
# [1] = Postemergence, Rate 250 g/ha, scale 0 to 10
# [2] = Preemergence, Rate 250 g/ha, scale 0 to 10, 0 is no effect, 10 is complete control
# [3] = Preemergence, Rate 500 g/ha, scale 0 to 10, 0 is no effect, 10 is complete control
# [4] = Rate 62 g/ha, Postemergence, scale 0 to 10, 0 no effect, 10 complete control
# [5] = Rate 125 g/ha, Postemergence, scale 0 to 10, 0 is no effect, 10 is complete control
# [6] = Postemergence, Rate 500 g/ha, scale of 0 to 10 where 0 is no effect and 10 is complete control
# [7] = Preemergence, Rate 62 g/ha, scale of 0 to 10 where 0 is no effect and 10 is complete control
# [8] = Preemergence, Rate 125 g/ha, scale of 0 to 10 where 0 is no effect and 10 is complete control
# [9] = Rate 62 g/ha, flood test species, Pre-emergence, visual evaluation after twelve to sixteen days
# [10] = Rate 125 g/ha, under heading Pre-emergence, flood test species, visual evaluation after twelve to sixteen days
# [11] = Rate 250 g/ha, Pre-emergence (flood test species), scale 0 to 10, 0 is no effect, 10 is complete control
# [12] = Rate 500 g/ha, Pre-emergence, flood test species, scale 0 to 10 (0 no effect, 10 complete control)
smiles,measurement,setting,value
CC(C)N(C(=O)n1oc(=O)n(COCC[Si](C)(C)C)c1=O)c1ccc(Cl)cc1 [Compound 467],Wheat plant response rating,wheat; [1],0
same,"Plant response rating, Wheat","wheat; Preemergence, Rate 62 g/ha",0
same,"Plant response rating, Wheat","wheat; Preemergence, Rate 125 g/ha",0
same,Wheat plant response rating,wheat; [2],0
same,Wheat plant response rating,wheat; [3],0
same,Wheat plant response rating,wheat; [4],0
same,Wheat plant response rating,wheat; [5],0
same,Wild oats plant response rating,wild oat; [1],2
same,"Plant response rating, Wild oats","wild oat; Preemergence, Rate 62 g/ha",0
same,"Plant response rating, Wild oats","wild oat; Preemergence, Rate 125 g/ha",0
same,Wild oats plant response rating,wild oat; [2],0
same,Wild oats plant response rating,wild oat; [3],0
same,Wild oats plant response rating,wild oat; [4],0
same,Wild oats plant response rating,wild oat; [5],0
same,Crabgrass plant response rating,crabgrass; [1],0
same,Crabgrass plant response rating,crabgrass; [6],6
same,"Plant response rating, Crabgrass",crabgrass; [7],5
same,"Plant response rating, Crabgrass",crabgrass; [8],6
same,Crabgrass plant response rating,crabgrass; [2],6
same,Crabgrass plant response rating,crabgrass; [3],8
same,Crabgrass plant response rating,crabgrass; [4],0
same,Crabgrass plant response rating,crabgrass; [5],0
same,Rape plant response rating,rape; [1],4
same,"Plant response rating, Rape","rape; Preemergence, Rate 62 g/ha",4
same,"Plant response rating, Rape","rape; Preemergence, Rate 125 g/ha",7
same,Rape plant response rating,rape; [2],7
same,Rape plant response rating,rape; [3],7
same,Rape plant response rating,rape; [4],0
same,Rape plant response rating,rape; [5],0
same,B. signalgrass plant response rating,"surinam grass; Postemergence, Rate 250 g/ha, scale 0 to 10, 0 no effect, 10 complete control",0
same,B. signalgrass plant response rating,surinam grass; [6],0
same,"Plant response rating, B. signalgrass",surinam grass; [7],0
same,"Plant response rating, B. signalgrass",surinam grass; [8],0
same,B. signalgrass plant response rating,surinam grass; [2],0
same,B. signalgrass plant response rating,surinam grass; [3],2
same,B. signalgrass plant response rating,surinam grass; [4],0
same,B. signalgrass plant response rating,surinam grass; [5],0
same,Giant foxtail plant response rating,giant foxtail; [1],2
same,Giant foxtail plant response rating,giant foxtail; [6],4
same,"Plant response rating, Giant foxtail",giant foxtail; [7],0
same,"Plant response rating, Giant foxtail",giant foxtail; [8],7
same,Giant foxtail plant response rating,giant foxtail; [2],9
same,Giant foxtail plant response rating,giant foxtail; [3],9
same,Giant foxtail plant response rating,giant foxtail; [4],0
same,Giant foxtail plant response rating,giant foxtail; [5],0
same,Cocklebur plant response rating,cocklebur; [1],0
same,Cocklebur plant response rating,cocklebur; [6],5
same,"Plant response rating, Cocklebur",cocklebur; [7],2
same,"Plant response rating, Cocklebur",cocklebur; [8],4
same,Cocklebur plant response rating,cocklebur; [2],6
same,Cocklebur plant response rating,cocklebur; [3],6
same,Cocklebur plant response rating,cocklebur; [4],0
same,Cocklebur plant response rating,cocklebur; [5],0
same,Blackgrass plant response rating,blackgrass; [1],0
same,Blackgrass plant response rating,blackgrass; [6],7
same,"Plant response rating, Blackgrass",blackgrass; [7],0
same,"Plant response rating, Blackgrass",blackgrass; [8],2
same,Blackgrass plant response rating,blackgrass; [2],2
same,Blackgrass plant response rating,blackgrass; [3],2
same,Blackgrass plant response rating,blackgrass; [4],0
same,Blackgrass plant response rating,blackgrass; [5],0
same,"Plant response rating, Barnyardgrass (0 to 10 scale, 0 is no effect, 10 is complete control)",bamyardgrass; [9],0
same,"Barnyardgrass plant response rating (0 to 10 scale, 0 is no effect, 10 is complete control)",bamyardgrass; [10],0
same,Barnyardgrass plant response rating,bamyardgrass; [11],0
same,Barnyardgrass plant response rating,bamyardgrass; [12],0
same,"Plant response rating, Rice (0 to 10 scale, 0 is no effect, 10 is complete control)",rice; [9],0
same,"Rice plant response rating (0 to 10 scale, 0 is no effect, 10 is complete control)",rice; [10],0
same,Rice plant response rating,rice; [11],0
same,Rice plant response rating,rice; [12],0
same,Nutsedge plant response rating,purple nutsedge; [1],0
same,"Plant response rating, Nutsedge",purple nutsedge; [8],0
same,Nutsedge plant response rating,purple nutsedge; [2],0
same,Nutsedge plant response rating,purple nutsedge; [3],0
same,Nutsedge plant response rating,purple nutsedge; [4],0
same,"Plant response rating, Bedstraw",bedstraw; Rate 62 g/ha,0
same,"Plant response rating, Bedstraw",bedstraw; Rate 125 g/ha,0
same,Bedstraw plant response rating,bedstraw; Rate 250 g/ha,0
same,Bedstraw plant response rating,bedstraw; Rate 500 g/ha,0
same,Redroot pigweed plant response rating,pigweed; [1],3
same,"Plant response rating, Redroot pigweed","pigweed; Preemergence, Rate 62 g/ha",7
same,"Plant response rating, Redroot pigweed","pigweed; Preemergence, Rate 125 g/ha",7
same,Redroot pigweed plant response rating,pigweed; [2],7
same,Redroot pigweed plant response rating,pigweed; [3],9
same,Redroot pigweed plant response rating,pigweed; [5],0
same,Morningglory plant response rating,morningglory; [1],7
same,"Plant response rating, Morningglory","morningglory; Preemergence, Rate 62 g/ha",0
same,"Plant response rating, Morningglory","morningglory; Preemergence, Rate 125 g/ha",0
same,Morningglory plant response rating,morningglory; [2],0
same,Morningglory plant response rating,morningglory; [3],0
same,Morningglory plant response rating,morningglory; [4],3
same,Morningglory plant response rating,morningglory; [5],7
same,Sugarbeets plant response rating,sugar beet; [1],4
same,"Plant response rating, Sugarbeets","sugar beet; Preemergence, Rate 62 g/ha",1
same,"Plant response rating, Sugarbeets","sugar beet; Preemergence, Rate 125 g/ha",1
same,Sugarbeets plant response rating,sugar beet; [2],1
same,Sugarbeets plant response rating,sugar beet; [3],2
same,Sugarbeets plant response rating,sugar beet; [4],0
same,Sugarbeets plant response rating,sugar beet; [5],2
same,Corn plant response rating,corn; [1],0
same,Corn plant response rating,corn; [6],0
same,"Plant response rating, Corn",corn; [7],0
same,"Plant response rating, Corn",corn; [8],0
same,Corn plant response rating,corn; [2],0
same,Corn plant response rating,corn; [3],0
same,Corn plant response rating,corn; [4],0
same,Corn plant response rating,corn; [5],0
